In brackets after ≈: the same amount, converted by molar mass. Several values for one entry are separate records, joined by “and”; a condition that tells them apart may be missing. Equal values may be shown once. Read-outs that look alike come from different tables or passages of the source.
Assays:
[1] = Microsomal stability, human; type: in vitro ADME; settings: human, microsomes, pH 7.5
Outline: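 1 µmol/l cpd + 0.5 mg/ml microsomes, Tris-HCl 100 mM pH 7.5 / MgCl2 6.5 mM / NADPH 1 mM, 37 °C. Timed acetonitrile quench, spin, supernatant by HPLC-MS/MS. t1/2 from first-order decay → clearance %Qh, well-stirred model.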

Mtb (moxR) FNDR-M1 = test: microbe, parasite or virus in culture; type: cell-based
Enterococcus faecium = test: MIC ESKAPES panel, Enterococcus faecium; type: cell-based
Protocol: (§1) Minimum inhibitory concentration (MIC) against ESKAPES panel of Gram positive and Gram negative pathogens (Enterococcus faecium, Staphylococcus aureus, Klebsiella pneumoniae, Acinetobacter baumannii, Pseudomonas aeruginosa, Enterobacter cloacae and Salmonella typhimurium [ESKAPES panel]) were determined at the FNDR by the standard broth dilution method [CLSI, M100]. […] Mueller Hinton broth (MHB) medium was used to grow ESKAPES panel strains. The individual cultures were added as 200 μL (inoculum of 3–7 × 10^5 cfu/ml) to the respective assay plates in each well to all columns, except the media control (200 μL of medium). […] The assay plates were incubated at 37 °C, and the results were noted on the 2nd day as turbidometric readout. The clear wells indicated inhibition of growth, while the turbid wells indicated uninhibited growth.

Msm 700084 = test: microbe, parasite or virus in culture; type: cell-based
[2] = target: His6-tagged ClpC1-NTD substrate, M. smegmatis ClpC1P1P2 (UniProt A0R574+P9WPC9); test: biochemical; type: biochemical
Chain of His6-tagged ClpC1-NTD substrate, M. smegmatis ClpC1P1P2 (P9WPC9 1-156, looked up, natural form): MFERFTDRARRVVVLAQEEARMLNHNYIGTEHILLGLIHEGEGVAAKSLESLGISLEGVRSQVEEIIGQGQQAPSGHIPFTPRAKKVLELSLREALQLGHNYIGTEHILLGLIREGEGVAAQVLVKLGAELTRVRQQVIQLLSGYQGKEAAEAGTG
Chain of His6-tagged ClpC1-NTD substrate, M. smegmatis ClpC1P1P2 (A0R574 whole entry): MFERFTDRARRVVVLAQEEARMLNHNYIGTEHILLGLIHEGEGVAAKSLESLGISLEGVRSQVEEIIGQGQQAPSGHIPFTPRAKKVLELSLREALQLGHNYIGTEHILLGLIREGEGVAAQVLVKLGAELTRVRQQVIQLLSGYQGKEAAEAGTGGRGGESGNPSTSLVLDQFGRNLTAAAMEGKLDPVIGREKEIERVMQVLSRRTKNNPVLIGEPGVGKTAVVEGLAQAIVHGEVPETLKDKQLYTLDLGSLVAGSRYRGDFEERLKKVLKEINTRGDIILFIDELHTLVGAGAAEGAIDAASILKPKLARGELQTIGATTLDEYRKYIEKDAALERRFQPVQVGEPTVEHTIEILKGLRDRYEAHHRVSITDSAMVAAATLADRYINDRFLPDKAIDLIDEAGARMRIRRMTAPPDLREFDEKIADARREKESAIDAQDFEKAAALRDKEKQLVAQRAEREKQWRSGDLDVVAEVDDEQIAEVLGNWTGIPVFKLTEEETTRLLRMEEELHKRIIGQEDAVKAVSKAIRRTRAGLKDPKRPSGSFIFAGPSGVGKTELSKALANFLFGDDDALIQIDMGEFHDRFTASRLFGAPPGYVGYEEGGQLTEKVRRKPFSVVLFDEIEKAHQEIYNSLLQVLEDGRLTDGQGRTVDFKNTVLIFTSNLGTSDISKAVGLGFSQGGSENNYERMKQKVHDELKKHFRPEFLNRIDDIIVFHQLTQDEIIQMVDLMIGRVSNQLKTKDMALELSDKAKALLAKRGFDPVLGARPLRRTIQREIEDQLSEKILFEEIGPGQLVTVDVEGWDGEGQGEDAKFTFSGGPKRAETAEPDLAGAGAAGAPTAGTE

[3] = test system: non-replicating cells of Mtb H37Rv; type: cell-based, Mycobacterium tuberculosis
Klebsiella pneumoniae = test: MIC ESKAPES panel, Klebsiella pneumoniae; type: cell-based
Protocol: as §1

in vivo = type: in vivo, BALB/cAnNCrl mice; settings: mouse, in vivo, iv
Protocol: The in-life experimental procedures were conducted in strict compliance with German and European animal welfare legislation in an AAALAC-accredited facility. Male BALB/cAnNCrl mice (Charles River Laboratories Research Models and Services, 97633 Sulzfeld, Germany) were used. Animals were 9 weeks old at dosing with a body weight of 21.6–24.3 g. Animals were delivered free of pathogens according to FELASA recommendations with a health certificate provided by the breeder. Upon receipt, the state of health and sex was checked. Animals acclimatized for at least 5 days before the commencement of the in-life phase. During acclimation, animals were group-housed in individually ventilated cages, on birch wood granulate bedding with species-specific enrichment (nesting material, mouse igloo, gnawing wood). During experimental conduct, animals were housed in conventional cages with elevated grid floors. Grid floor was used to avoid contamination with test item material excreted via urine and feces and subsequent reuptake during fur grooming. No bedding and enrichment were provided except a cage divider, which can be used as a shelter. Animals always had unlimited access to food and water and received a pelleted, total pathogen-free maintenance diet and tap drinking water, sterilized by filter.
In case of incomplete dissolution, the formulation was filtered at 40 °C (non-pyrogenic sterile-R filter, 0.2 µm). All formulations were stirred warm until administration. Actual test item content was determined bioanalytically.
Male BALB/cAnNCrl mice (n = 3 per test item and administration route) received a bolus dose of the formulated test item(s) (1 mg/kg iv, 30 mg/kg po) at t = 0 h, and whole blood samples were collected subsequently (35 µl at 0.1 (iv) / 0.25 (po), 0.5, 1, 2, 4, 6 h; 600 µl at sacrifice after 24 h). Animals were euthanized by exsanguination in deep isoflurane anesthesia. Whole blood samples were immediately stored on ice at about 4 °C. Plasma was separated by centrifugation at approximately 10,000 × g for 5 m at +4 °C. Centrifugation of each blood sample was started within 10 m after collection. A single aliquot of at least 15 µL of plasma was prepared and immediately stored at −20 ± 5 °C.
Sample proteins were precipitated with ACN (1 + 12, v/v) containing internal standard, and supernatants analyzed by quantitative UPLC-MS/MS: Phenomenex Luna Omega C18, 2.1 × 50 mm, 1.6 µm, 40 °C, gradient between 10% - 90% ACN with 0.1% formic acid. LogD determination: Lipophilicity of the test items, expressed as chromLogD7.5, was assessed by measuring their chromatographic retention times on C18-material. The chromatographic retention versus logD7.5 values of a series of thirteen n-alkan-2-ones (2-butanone – 2-hexadecanone) served as lipophilicity calibration.

**Q.** Which “Microsomal Stability Human” value [1] does the source give for `COC(c1ccccc1)C1NC(=O)C(C)NC(=O)C(CC(C)CO)N(C)C(=O)C(Cc2cn(C)c3ccccc23)NC(=O)C(Cc2cn(CCCCCn3cc(CC4NC(=O)C(CC(C)C)N(C)C(=O)C(C(C)C)NC(=O)C(C(OC)c5ccccc5)NC(=O)C(C)NC(=O)C(CC(C)CO)N(C)C(=O)C(Cc5cn(C)c6ccccc56)NC4=O)nn3)nn2)NC(=O)C(CC(C)C)N(C)C(=O)C(C(C)C)NC1=O` (centres unmarked) [Compound 12] here?
**A.** < 24 %Qh

**Q.** And the “Microsomal Stability Human QH” value [1]?
**A.** <24.4%

**Q.** And the MIC (Mtb (moxR) FNDR-M1; M. tuberculosis FNDR-M1, single well replicates)?
**A.** 0.195 µM (≈ 0.386 µg/mL)

**Q.** And the MIC (Mtb (moxR) FNDR-M1; Mycobacterium tuberculosis, M. tuberculosis FNDR-M1, single well replicates)?
**A.** 0.195 µM (≈ 0.386 µg/mL)

**Q.** What about the MIC (Mtb (moxR) FNDR-M1; Mycobacterium tuberculosis, Mtb (moxR) FNDR-M1, mean ± SD, n = 3 well replicates) of the same compound?
**A.** 0.2 µM (≈ 0.396 µg/mL)

**Q.** What about the MIC (Enterococcus faecium; Enterococcus faecium, Gram positive, n = 3 well replicates) of the same compound?
**A.** > 50 µM

**Q.** What about the MIC (Enterococcus faecium; Enterococcus faecium, Gram-Positive Bacteria, replicates 1-3) of the same compound?
**A.** > 99 µg/mL

**Q.** And the MIC (Enterococcus faecium; Gram-Positive Bacteria, replicates 1-3, listed as 12 (UdSBI-4377))?
**A.** >50 µM

**Q.** And the MIC (Msm 700084; Mycolicibacterium smegmatis, 700084, single determinations, read-out: Msm 700084 MIC)?
**A.** > 50 µM

**Q.** And the MIC (Msm 700084; Mycolicibacterium smegmatis, 700084, read-out: MIC Msm 700084)?
**A.** > 50 µM

**Q.** What about the DC50 ([2]; read-out: DC50, single measurements) of the same compound?
**A.** 10.3 µM and 9.3 µM and 5.3 µM and 8.3 µM and 7.6 µM

**Q.** What about the DC50 ([2]; read-out: DC50 M.smegmatis ClpC1P1P2 Mean) of the same compound?
**A.** 8.4 µM

**Q.** And the Dmax ([2]; read-out: DMax M.smegmatis ClpC1P1P2 Mean)?
**A.** 81%

**Q.** And the “inhibitory activity on non-growing Mtb H37Rv” value [3]?
**A.** lost their inhibitory activity

**Q.** What about the MIC (Klebsiella pneumoniae; Gram-Negative Bacteria, replicates 1-3, listed as 12 (UdSBI-4377)) of the same compound?
**A.** >50 µM

**Q.** What about the MIC (Klebsiella pneumoniae; Klebsiella pneumoniae, Gram negative, n = 3 well replicates) of the same compound?
**A.** > 50 µM

**Q.** What about the MIC (Klebsiella pneumoniae; Klebsiella pneumoniae, Gram-Negative Bacteria, replicates 1-3) of the same compound?
**A.** > 99 µg/mL

**Q.** What about the Cl (in vivo; male, BALB/cAnNCrl, 1 mg/kg) of the same compound?
**A.** 4.14 mL/min/kg

**Q.** What about the T1/2 (in vivo; male, BALB/cAnNCrl, 1 mg/kg) of the same compound?
**A.** 1.37 h

**Q.** What about the VSS (in vivo; male, BALB/cAnNCrl, 1 mg/kg) of the same compound?
**A.** 0.42 L/kg

**Q.** And the AUC (in vivo)?
**A.** 3870 h nM/(nmol kg-1)

**Q.** What about the Cmax (in vivo) of the same compound?
**A.** 3270 nM/(nmol kg-1)

**Q.** What about the “Plasma concentration 24 h” value (in vivo) of the same compound?
**A.** BLOQ
